Source: patent US10562893B2, “Benzimidazoles derivatives as Tec kinases family inhibitors” (GB005, Inc., priority 2015, dated 2020)

What was measured:
Tec kinase = Tec kinase (Homo sapiens (Human), UniProt P42680); assay: Tec kinase inhibition assay; assay type: biochemical; details: micro-fluidic detection, 3 hours at 25° C.
Protocol: The in vitro kinase assays were performed at Nanosyn utilizing micro-fluidic detection technology. The test compounds were serially pre-diluted in DMSO and added, by the acoustic dispensing (Labcyte® 550), directly to 384well assay plates into 10 uL of a buffer with enzyme comprising: 100 mM HEPES, pH7.5, 5 mM MgCl2, 0.1% bovine serum albumin, 1 mM DTT, 0.01% Triton X-100 and the enzyme. Final DMSO concentration was maintained at 1% in all samples, including the controls. The reactions were initiated by addition of ATP (to the specified concentration) and the fluorescently labeled peptide substrate to a final concentration of 1 uM, and incubated for 3 hours at 25° C. Following incubation, the reactions were quenched by addition of 40 μL of termination buffer (100 mM HEPES, pH7.5, 0.01% Triton X-100, 50 mM EDTA). Terminated plates were analyzed using Caliper LabChip® 3000 microfluidic electrophoresis instrument (Caliper Life Sciences/Perkin Elmer). The enzymatic modification of the peptide substrate (phosphorylation) results in a change of net charge enabling electrophoretic separation of product from substrate. As substrate and product are separated by electrophoresis, two peaks of fluorescence are observed. Change in the relative fluorescence intensity of the substrate and product peaks was the parameter measured, reflecting enzyme activity. In the presence of inhibitor, the ratio between product and substrate is altered: signal of the product decreases, while the signal of the substrate increases. Activity in each test sample was determined as the product to sum ratio (PSR): […], where P is the peak height of the product and S is the peak height of the FAM-cAMP substrate. For each compound, enzyme activity was measured at 12 concentrations spaced by 3× dilution intervals. Negative control samples (0%-inhibition in the absence of inhibitor, DMSO only) and positive control samples (100%-inhibition, in the absence of enzyme or in the presence of control inhibitor) were assembled in replicates of four and were used to calculate %-inhibition values in the presence of compounds. Percent inhibition (Pinh) was determined using the following equation: Pinh=(PSR0%−PSRinh)/(PSR0%−PSR100%)*100, where PSRinh is the product sum ratio in the presence of inhibitor, PSR0% is the product sum ratio in the absence of inhibitor and PSR100% is the product sum ratio in 100%-inhibition control samples. To determine IC50 values, the inhibition curves (Pinh versus inhibitor concentration) were fitted by 4 parameter sigmoid dose-response model using XLfit software (IDBS).

[1] = test system: Jurkat human acute T cell leukemia cells; assay: Jurkat IL-2 release assay; assay type: cell-based; details: IL-2 release from Jurkat cells stimulated with anti-CD3 and anti-CD28, 48 hours, ELISA
Summary of the method: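 Jurkat cells were pre-treated with compound curves 30 min at 37°C, then stimulated on plate-bound anti-CD3 (coated at 10 μg/mL) plus 1 μg/mL soluble anti-CD28 for 48 h. IL-2 in supernatant quantified by ELISA; EC50 from dose-response against vehicle-treated controls.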

Chain of Tec kinase (P42680 whole entry): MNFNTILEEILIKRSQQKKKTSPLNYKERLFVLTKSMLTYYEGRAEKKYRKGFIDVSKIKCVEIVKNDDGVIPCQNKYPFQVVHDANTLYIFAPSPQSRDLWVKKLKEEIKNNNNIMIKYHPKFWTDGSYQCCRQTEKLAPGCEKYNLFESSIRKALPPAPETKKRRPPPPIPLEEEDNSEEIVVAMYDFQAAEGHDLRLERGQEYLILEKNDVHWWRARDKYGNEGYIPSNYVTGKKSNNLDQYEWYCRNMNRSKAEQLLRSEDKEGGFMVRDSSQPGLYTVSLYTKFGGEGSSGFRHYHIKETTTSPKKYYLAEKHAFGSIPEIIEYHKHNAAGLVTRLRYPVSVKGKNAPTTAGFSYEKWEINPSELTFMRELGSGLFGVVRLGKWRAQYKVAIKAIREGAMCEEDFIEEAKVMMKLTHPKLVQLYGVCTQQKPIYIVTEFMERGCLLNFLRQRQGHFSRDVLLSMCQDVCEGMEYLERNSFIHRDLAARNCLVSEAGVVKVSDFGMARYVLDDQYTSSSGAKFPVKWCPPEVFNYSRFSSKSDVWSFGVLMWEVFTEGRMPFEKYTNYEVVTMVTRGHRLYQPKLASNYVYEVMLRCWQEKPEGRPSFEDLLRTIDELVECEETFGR

Row | Structure (SMILES) | EC50 (Tec kinase) | EC50 [1]
1 | C=CC(=O)Nc1cccc(-n2c(NC(=O)c3ccc(C(F)F)s3)nc3cc(CN[C@@H](C)C(C)(C)C)ccc32)c1 [Compound 2] | 10 to 100 nM | < 10 nM
2 | C=CC(=O)Nc1cccc(-n2c(NC(=O)c3ccc(-c4cnco4)s3)nc3cc(CN[C@@H](C)C(C)(C)C)ccc32)c1 [Compound 25] | < 10 nM | < 10 nM
3 | C=CC(=O)Nc1cccc(-n2c(NC(=O)c3cccc(C#N)c3)nc3cc(CN[C@@H](C)C(C)(C)C)ccc32)c1 [Compound 9] | 10 to 100 nM | 10 to 100 nM
4 | C=CC(=O)Nc1cccc(-n2c(NC(=O)c3ccnn3C)nc3cc(CN[C@@H](C)C(C)(C)C)ccc32)c1 [Compound 28] | 10 to 100 nM | < 10 nM
5 | C=CC(=O)Nc1cccc(-n2c(NC(=O)c3ccno3)nc3cc(CN[C@@H](C)C(C)(C)C)ccc32)c1 [Compound 38] | 10 to 100 nM | < 10 nM
